Assays:
[1] = molecular target: IL-17A(FLAG-Tagged): IL-17RA(His-Tagged) binding (Homo sapiens, UniProt Q16552, K93Q); experiment: IL-17A(FLAG-tagged):IL-17RA(His-tagged) binding disruption Eu-HTRF assay, Protocol 2; conditions: FLAG-IL-17A 1 nM; average if tested more than once
From the text: IL-17A(FLAG-Tagged): IL-17RA(His-Tagged) Binding Disruption Eu-HTRF Assay
An antibody directed against the FLAG tag of IL-17A (SEQ ID NO: 1) is labeled with the HTRF donor chromophore (Europium-cryptate). IL-17A is present as a dimer that is “locked into” this quaternary structure due to the formation of loop-spanning […] disulfide bridges. The construct of IL-17RA used in the assay excludes the […] portion of the receptor and is fused to a C-terminal 10×His tag (SEQ ID NO:2). An antibody directed against the His tag of the IL-17RA chimera is labeled with the HTRF acceptor chromophore (“D2”). The fluorescence-resonance energy transfer (FRET) depends on the vicinity of the donor chromophore to the acceptor, and interruption of the binding between the IL-17A and IL-17RA causes the reduction/loss of FRET. Therefore, this assay allows to evaluate the compound effect on the binding IL-17A and IL-17RA by monitoring the fluorescence intensity of donor vs acceptor. The assay was run using either Protocol 1 or Protocol 2 as described below.
Protocol 2. 40 nl of 2-fold serial diluted compound solution for total 22 dilution points is added into each well of a 1536-well, white, low-volume, non-binding plate (Greiner #782904), then 2 μl of FLAG tagged IL-17A at 2×final concentration (1 nM) in solution of PBS+0.01% Triton-X100 is added to each well. The assay plate is briefly centrifuged then incubated for 1 h at rt. A mixed solution is prepared containing 2×5 nM 10HIS×IL-17RA, 2×2.5 nM Eu-anti-FLAG (CISBIO), 2×5 nM D2-anti-HIS (CISBIO) in PBS+0.01% Triton-X100+200 mM Potassium Fluoride (Sigma 60238) and 2 μl of mix is added to each well of the assay plate. The plate is briefly centrifuged then incubated for 2 h at rt. The HTRF intensities at the wavelength of donor (615 nm) and acceptor (665 nm) are measured using BMG Pherastar. The ratio between intensities at two wavelengths is calculated and plotted against the compound concentration and the data is fitted to a one-site competition model to yield IC50 of the compound.

[2] = system: IL-17A-induced G-CSF production in human normal keratinocyte (NHK); experiment: NHK assay: IL-17A-induced G-CSF production in normal human keratinocytes; format: cell-based; conditions: 24 h, IL-17A 5 ng/mL, G-CSF by HTRF, average if tested more than once
Description: IL-17A acts directly on keratinocytes through binding to dimeric receptor IL-17RA/RC and drives the production of a number of inflammatory mediators known to be elevated in psoriasis lesional tissue. IL-17A small molecule inhibitors that block the IL-17A to interact with IL-17R would inhibit the IL-17A signaling in its targeted cells such as keratinocytes. The compound functional activity is evaluated for its impact on IL-17A-induced G-CSF production in human normal keratinocyte (NHK).
Adult normal human keratinocytes are cultured in keratinocyte growth medium (Lonza) in a flask till reaching ˜90% confluence, then cells are transferred to a 384-well plate at density of 3000-4000 cell/well. Recombinant human IL-17A (Gibco PHC9174) is pre-incubated with titrated compound or DMSO for 1 h at rt then added to the cell culture plate. The final concentration of IL-17A is 5 ng/mL and DMSO is 0.2%, in the culture containing 5% FBS. Cells are cultured/treated for 24 h at 37° C. Supernatants are collected and G-CSF production is measured through HTRF technology using Human G-CSF Kit (CisBio). G-CSF concentration was extrapolated from the standard curve and IC50 is determined using GraphPad Prism. Cell viability is also evaluated using CellTiter-Glo kit (Promega) and effect of compound on cell viability is compared to DMSO control.

UniProt Q16552, sequence (Q16552 with tags, fused parts or gaps K93Q): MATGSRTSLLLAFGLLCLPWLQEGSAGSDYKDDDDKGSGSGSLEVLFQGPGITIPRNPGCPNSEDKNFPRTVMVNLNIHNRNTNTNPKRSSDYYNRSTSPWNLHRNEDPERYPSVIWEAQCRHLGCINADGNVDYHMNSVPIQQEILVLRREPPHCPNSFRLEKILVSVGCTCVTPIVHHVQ

COC[C@H](c1cnn2cc([C@@H](NC(=O)c3nonc3C)[C@H](C)OC(C)(C)C(F)(F)F)nc2c1)N1CC(F)(F)CNC1=O (relative stereo) [Example 61, N-((1R*,2S*)-1-(7-((S)-1-(5,5-Difluoro-2-oxotetrahydropyrimidin-1(2H)-yl)-2-methoxyethyl)imidazo[1,2-b]pyridazin-2-yl)-2-((1,1,1-trifluoro-2-methylpropan-2-yl)oxy)propyl)-4-methyl-1,2,5-oxadiazole-3-carboxamide]
IC50 [1]: > 100 nM | IC50 ([2]; Homo sapiens, Keratinocyte): > 100 nM

COC[C@H](c1cnn2cc([C@@H](NC(=O)c3nonc3C3CC3)[C@@H](C)OC3CC3)nc2c1)N1CC(F)(F)CNC1=O (relative stereo) [Example 54, N-((1R*,2R*)-2-Cyclopropoxy-1-(7-((S)-1-(5,5-difluoro-2-oxotetrahydropyrimidin-1(2H)-yl)-2-methoxyethyl)imidazo[1,2-b]pyridazin-2-yl)propyl)-4-cyclopropyl-1,2,5-oxadiazole-3-carboxamide]
IC50 [1]: < 50 nM | IC50 ([2]; Homo sapiens, Keratinocyte): 50 to 100 nM

N—((S)-1-(7-((S)-2-Cyclopropoxy-1-(5,5-difluoro-2-oxotetrahydropyrimidin-1(2H)-yl-4,4,6,6-d4)ethyl)imidazo[1,2-b]pyridazin-2-yl)-5,5,5-trifluoro-4,4-dimethylpentyl)-1,2,5-oxadiazole-3-carboxamide trifluoroacetate [Example 131]
IC50 [1]: < 50 nM | IC50 [2]: > 100 nM

[2H]C1([2H])NC(=O)N([C@H](COC2CC2)c2cnn3cc([C@@H](NC(=O)c4nonc4OC)C4CCC(F)(F)CC4)nc3c2)C([2H])([2H])C1(F)F [Example 69, N—((S)-(7-((S)-2-Cyclopropoxy-1-(5,5-difluoro-2-oxotetrahydropyrimidin-1(2H)-yl-4,4,6,6-d4)ethyl)imidazo[1,2-b]pyridazin-2-yl)(4,4-difluorocyclohexyl)methyl)-4-methoxy-1,2,5-oxadiazole-3-carboxamide]
IC50 [1]: < 50 nM | IC50 ([2]; Homo sapiens, Keratinocyte): < 50 nM

COC[C@H](c1cnn2cc([C@@H](NC(=O)c3nonc3C3CC3)C(C3CC3)C3CC3)nc2c1)N1CC(F)(F)CNC1=O [Example 103, 4-Cyclopropyl-N—((S)-2,2-dicyclopropyl-1-(7-((S)-1-(5,5-difluoro-2-oxotetrahydropyrimidin-1(2H)-yl)-2-methoxyethyl)imidazo[1,2-b]pyridazin-2-yl)ethyl)-1,2,5-oxadiazole-3-carboxamide]
IC50 [1]: < 50 nM | IC50 ([2]; Homo sapiens, Keratinocyte): < 50 nM

[2H]C1([2H])NC(=O)N([C@H](COC)c2cnn3cc([C@H](CCC(C)(C)C(F)(F)F)NC(=O)c4nonc4C)nc3c2)C([2H])([2H])C1(F)F [Example 74, N—((S)-1-(7-((S)-1-(5,5-Difluoro-2-oxotetrahydropyrimidin-1(2H)-yl-4,4,6,6-d4)-2-methoxyethyl)imidazo[1,2-b]pyridazin-2-yl)-5,5,5-trifluoro-4,4-dimethylpentyl)-4-methyl-1,2,5-oxadiazole-3-carboxamide]
IC50 [1]: < 50 nM | IC50 ([2]; Homo sapiens, Keratinocyte): < 50 nM

COC[C@H](c1cnn2cc([C@H](CC(C)(C)C(F)(F)F)NC(=O)c3nonc3C)nc2c1)N1CC(F)(F)CNC1=O [Example 66, N—((S)-1-(7-((S)-1-(5,5-Difluoro-2-oxotetrahydropyrimidin-1(2H)-yl)-2-methoxyethyl)imidazo[1,2-b]pyridazin-2-yl)-4,4,4-trifluoro-3,3-dimethylbutyl)-4-methyl-1,2,5-oxadiazole-3-carboxamide]
IC50 ([2]; Homo sapiens, Keratinocyte): 50 to 100 nM

COC[C@H](c1cnn2cc([C@@H](NC(=O)c3nonc3C3CC3)[C@H]3[C@@H]4CC(F)(F)C[C@@H]43)nc2c1)N1CC(F)(F)CNC1=O (relative stereo) [Example 51, 4-Cyclopropyl-N—((S*)-(7-((S)-1-(5,5-difluoro-2-oxotetrahydropyrimidin-1(2H)-yl)-2-methoxyethyl)imidazo[1,2-b]pyridazin-2-yl)((1R,5S,6r)-3,3-difluorobicyclo[3.1.0]hexan-6-yl)methyl)-1,2,5-oxadiazole-3-carboxamide]
IC50 ([2]; Homo sapiens, Keratinocyte): < 50 nM

C[C@H](c1cnn2cc([C@H](CC(C)(C)C(F)(F)F)NC(=O)c3nonc3C3CC3)nc2c1)N1CC(F)(F)CNC1=O [Example 88, 4-Cyclopropyl-N—((S)-1-(7-((R)-1-(5,5-difluoro-2-oxotetrahydropyrimidin-1(2H)-yl)ethyl)imidazo[1,2-b]pyridazin-2-yl)-4,4,4-trifluoro-3,3-dimethylbutyl)-1,2,5-oxadiazole-3-carboxamide]
IC50 ([2]; Homo sapiens, Keratinocyte): < 50 nM

CCOCC(c1cnn2cc([C@@H](NC(=O)c3nonc3C)C3CCC(F)(F)CC3)nc2c1)N1CC(F)(F)CNC1=O (single isomer, unassigned) [Example 35, N—((S)-(7-((S*)-1-(5,5-Difluoro-2-oxotetrahydropyrimidin-1(2H)-yl)-2-ethoxyethyl)imidazo[1,2-b]pyridazin-2-yl)(4,4-difluorocyclohexyl)methyl)-4-methyl-1,2,5-oxadiazole-3-carboxamide]
IC50 ([2]; Homo sapiens, Keratinocyte): < 50 nM

C[C@H](c1cnn2cc([C@H](COC(C)(C)C(F)(F)F)NC(=O)c3nonc3C3CC3)nc2c1)N1CC(F)(F)CNC1=O [Example 87, 4-Cyclopropyl-N—((R)-1-(7-((R)-1-(5,5-difluoro-2-oxotetrahydropyrimidin-1(2H)-yl)ethyl)imidazo[1,2-b]pyridazin-2-yl)-2-((1,1,1-trifluoro-2-methylpropan-2-yl)oxy)ethyl)-1,2,5-oxadiazole-3-carboxamide]
IC50 ([2]; Homo sapiens, Keratinocyte): < 50 nM

Cc1nonc1C(=O)N[C@@H](CC(C)(C)C(F)(F)F)c1cn2ncc([C@@H](COC3CC3)N3CC(F)(F)CNC3=O)cc2n1 [Example 50, N—((S)-1-(7-((S)-2-Cyclopropoxy-1-(5,5-difluoro-2-oxotetrahydropyrimidin-1(2H)-yl)ethyl)imidazo[1,2-b]pyridazin-2-yl)-4,4,4-trifluoro-3,3-dimethylbutyl)-4-methyl-1,2,5-oxadiazole-3-carboxamide]
IC50 ([2]; Homo sapiens, Keratinocyte): < 50 nM

COC[C@H](c1cnn2cc([C@@H](CCC(C)(C)C(F)(F)F)NC(=O)c3nonc3C)nc2c1)N1CC(F)(F)CNC1=O [Example 67, N—((R)-1-(7-((S)-1-(5,5-Difluoro-2-oxotetrahydropyrimidin-1(2H)-yl)-2-methoxyethyl)imidazo[1,2-b]pyridazin-2-yl)-5,5,5-trifluoro-4,4-dimethylpentyl)-4-methyl-1,2,5-oxadiazole-3-carboxamide]
IC50 ([2]; Homo sapiens, Keratinocyte): > 100 nM

COC[C@H](c1cnn2cc([C@@H](NC(=O)c3nonc3C3CC3)[C@@H](C)O[C@@H](C)C(F)(F)F)nc2c1)N1CC(F)(F)CNC1=O [Example 43, 4-Cyclopropyl-N-((1R,2R)-1-(7-((S)-1-(5,5-difluoro-2-oxotetrahydropyrimidin-1(2H)-yl)-2-methoxyethyl)imidazo[1,2-b]pyridazin-2-yl)-2-(((S)-1,1,1-trifluoropropan-2-yl)oxy)propyl)-1,2,5-oxadiazole-3-carboxamide]
IC50 ([2]; Homo sapiens, Keratinocyte): < 50 nM

COC[C@H](c1cnn2cc([C@H](COC(C)(C)C(F)(F)F)NC(=O)c3nonc3C3CC3)nc2c1)N1CC(F)(F)CNC1=O [Example 64, 4-Cyclopropyl-N—((R)-1-(7-((S)-1-(5,5-difluoro-2-oxotetrahydropyrimidin-1(2H)-yl)-2-methoxyethyl)imidazo[1,2-b]pyridazin-2-yl)-2-((1,1,1-trifluoro-2-methylpropan-2-yl)oxy)ethyl)-1,2,5-oxadiazole-3-carboxamide]
IC50 ([2]; Homo sapiens, Keratinocyte): < 50 nM
